Values of other authors as cited in patent US6465677B1, “Method for the preparation of N-neohexyl-α-aspartyl-L-phenylalanine methyl ester from imidazolidin-4-one intermediates” (The NutraSweet Company, priority 1998, dated 2002).

Conditions: on a weight basis

COC(=O)[C@H](Cc1ccccc1)NC(=O)[C@H](CC(=O)O)NCCC(C)(C)C [neotame, N-[N-(3,3-dimethylbutyl)-L-α-aspartyl]-L-phenylalanine 1-methyl ester]
sweetness relative to sucrose: approximately 8,000 times as sweet as sucrose
